Reference: the supplement of paper PMC10307832

What follows are cell lines tested with CC1=C(C(=NN1)C)CC2=C(C3=C(S2)N(C(=O)N(C3=O)C)CC(C)C)C(=O)N4C[C@@H](CO4)O + CS(=O)(=O)CCNCc1ccc(-c2ccc3ncnc(Nc4ccc(OCc5cccc(F)c5)c(Cl)c4)c3c2)o1 [Lapatinib] (partner 2 µM) (assay: relative viability (nuclei count vs DMSO), 5 days (fraction); higher = more cells survive). Conditions: first compound 0.0025 µM.
Summary of the method: (§1)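 Relative viability is defined as nuclei in treated wells over nuclei in vehicle wells. Duplicate plates were run and medians reported. Lung cancer cell lines in 1536-well plates were dosed by pin tool one day after seeding, with one drug or with a fixed anchor-drug dose plus five library-drug doses (not always all listed) in √10 steps, and nuclei were counted after 5 days.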

Cell Line | relative viability
LU99A | 1.22
BEN | 0.669
HARA | 0.664
HCC-78 | 0.92
NCI-H322M | 0.626
LCLC-97TM1 | 0.721
NCI-H2009 | 1.12
A-427 | 1
NCI-H661 | 0.523
NCI-H1734 | 1.19
NCI-H460 | 0.959
NCI-H2347 | 0.993
SK-LU-1 | 0.805
201T | 1.05
NCI-H1915 | 0.98

Same assay, conditions: first compound 0.007906 µM

Cell Line | relative viability
LU99A | 0.982
BEN | 0.672
HARA | 0.81
HCC-78 | 0.691
NCI-H322M | 0.605
LCLC-97TM1 | 0.776
NCI-H2009 | 1.48
A-427 | 1.09
NCI-H661 | 0.649
NCI-H1734 | 1.11
NCI-H460 | 1.34
NCI-H2347 | 0.956
SK-LU-1 | 0.425
201T | 1
NCI-H1915 | 1.02

Same assay, conditions: first compound 0.025 µM

Cell Line | relative viability
LU99A | 0.9
BEN | 0.629
HARA | 0.637
HCC-78 | 0.738
NCI-H322M | 0.601
LCLC-97TM1 | 0.896
NCI-H2009 | 0.963
A-427 | 0.679
NCI-H661 | 0.464
NCI-H1734 | 1.02
NCI-H460 | 0.996
NCI-H2347 | 0.86
SK-LU-1 | 0.263
201T | 1.03
NCI-H1915 | 0.953

Same assay, conditions: first compound 0.07906 µM

Cell Line | relative viability
LU99A | 0.975
BEN | 0.526
HARA | 0.671
HCC-78 | 0.577
NCI-H322M | 0.55
LCLC-97TM1 | 0.972
NCI-H2009 | 1.04
A-427 | 1.02
NCI-H661 | 0.623
NCI-H1734 | 0.986
NCI-H460 | 1.08
NCI-H2347 | 0.964
SK-LU-1 | 0.295
201T | 0.986
NCI-H1915 | 0.967

Same assay, conditions: first compound 0.25 µM

Cell Line | relative viability
LU99A | 1.11
BEN | 0.741
HARA | 0.696
HCC-78 | 0.733
NCI-H322M | 0.524
LCLC-97TM1 | 1.13
NCI-H2009 | 1.26
A-427 | 1.08
NCI-H661 | 0.493
NCI-H1734 | 0.812
NCI-H460 | 1.28
NCI-H2347 | 1.09
SK-LU-1 | 0.4
201T | 1.06
NCI-H1915 | 1.06

These cell lines were tested with Cc1ccccc1C(C(=O)NC1CCCCC1)N(C(=O)Cn1ccnc1C)c1cccc(F)c1 [IDH-C35] + COc1cccc2cc(-c3nc([C@H]4CC[C@H](C(=O)O)CC4)n4ncnc(N)c34)[nH]c12 [OSI-027] (partner 0.5 µM) in the same assay as above. Conditions: first compound 0.08 µM.
Summary of the method: as §1

Cell Line | relative viability
LU99A | 0.335
BEN | 0.308
HARA | 0.607
HCC-78 | 0.349
NCI-H322M | 0.585
LCLC-97TM1 | 0.557
NCI-H2009 | 0.654
A-427 | 0.477
NCI-H661 | 0.756
NCI-H1734 | 0.643
NCI-H460 | 0.659
NCI-H2347 | 0.467
SK-LU-1 | 0.377
201T | 0.845
NCI-H1915 | 0.645

Same assay, conditions: first compound 0.253 µM

Cell Line | relative viability
LU99A | 0.329
BEN | 0.318
HARA | 0.735
HCC-78 | 0.362
NCI-H322M | 0.566
LCLC-97TM1 | 0.614
NCI-H2009 | 0.643
A-427 | 0.49
NCI-H661 | 0.68
NCI-H1734 | 0.621
NCI-H460 | 0.757
NCI-H2347 | 0.48
SK-LU-1 | 0.336
201T | 0.75
NCI-H1915 | 0.602

Same assay, conditions: first compound 0.8 µM

Cell Line | relative viability
LU99A | 0.276
BEN | 0.298
HARA | 0.484
HCC-78 | 0.633
NCI-H322M | 0.628
LCLC-97TM1 | 0.508
NCI-H2009 | 0.685
A-427 | 0.463
NCI-H661 | 0.725
NCI-H1734 | 0.564
NCI-H460 | 0.681
NCI-H2347 | 0.477
SK-LU-1 | 0.347
201T | 0.681
NCI-H1915 | 0.62

Same assay, conditions: first compound 2.53 µM

Cell Line | relative viability
LU99A | 0.293
BEN | 0.328
HCC-78 | 0.388
NCI-H322M | 0.549
LCLC-97TM1 | 0.447
NCI-H2009 | 0.668
A-427 | 0.471
NCI-H661 | 0.695
NCI-H1734 | 0.6
NCI-H460 | 0.644
NCI-H2347 | 0.324
SK-LU-1 | 0.357
201T | 0.802
NCI-H1915 | 0.597

Same assay, conditions: first compound 8 µM

Cell Line | relative viability
LU99A | 0.286
BEN | 0.261
HARA | 0.405
HCC-78 | 0.332
NCI-H322M | 0.511
LCLC-97TM1 | 0.421
NCI-H2009 | 0.569
A-427 | 0.448
NCI-H661 | 0.746
NCI-H1734 | 0.597
NCI-H460 | 0.602
NCI-H2347 | 0.369
SK-LU-1 | 0.326
201T | 0.777
NCI-H1915 | 0.56
